Measured values reported in patent US20100048534A1, “CRYSTALLINE LESTAURTINIB HYDRATES AND CRYSTALLINE LESTAURTINIB HEMIHYDRATE HEMIACETONITRILEATE AND CRYSTALLINE LESTAURTINIB HEMIHYDRATE HEMITETRAHYDROFURANATE” (priority 2005, published 2010).

Test: Solid-state stability and moisture sorption versus relative humidity (dynamic moisture sorption gravimetry, DMSG)
Assay type: physicochemical

For `C[C@]12O[C@H](C[C@]1(O)CO)n1c3ccccc3c3c4c(c5c6ccccc6n2c5c31)CNC4=O` [Crystalline lestaurtinib anhydrate, lestaurtinib anhydrate], which “water content of solid-state phase by DMSG” value (25° C., between 0% and 5% RH, w/w) is on record?
The value was “less than 0.5%”.

What about the “behaviour above 5% RH” value (ambient temperature, above 5% RH) of the same compound?
Its value is “absorbs moisture above 5% RH to form crystalline lestaurtinib monohydrate”.
